Where “and” joins values, the source holds several entries; their conditions need not be identical. Equal entries are not always repeated.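 A five-concentration, 48-hour dose response in 96-well plates underlies each endpoint, interpolated linearly between surrounding concentrations. Here, GI50 denotes the concentration required for 50% inhibition of growth. TGI: concentration producing complete growth inhibition.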
Experiments:
Assay in all cases: NCI tumour cell line growth inhibition, 48 h
NCI-H226 lung = test system: NCI-H226 lung
SK-MEL-5 melanoma = test system: SK-MEL-5 melanoma
OVCAR-3 ovarian = test system: OVCAR-3 ovarian
HOP-92 NSCLC = test system: HOP-92 NSCLC
SF-295 CNS = test system: SF-295 CNS
SN12C renal = test system: SN12C renal
MOLT-4 leukemia = test system: MOLT-4 leukemia
HL-60(TB) leukemia = test system: HL-60(TB) leukemia
CCRF-CEM leukemia = test system: CCRF-CEM leukemia
ACHN renal = test system: ACHN renal

Compound	GI50 (NCI-H226 lung)	TGI (NCI-H226 lung)	GI50 (SK-MEL-5 melanoma)	TGI (SK-MEL-5 melanoma)	GI50 (OVCAR-3 ovarian)	TGI (OVCAR-3 ovarian)	GI50 (HOP-92 NSCLC)	TGI (HOP-92 NSCLC)	GI50 (SF-295 CNS)	TGI (SF-295 CNS)	GI50 (SN12C renal)	TGI (SN12C renal)	GI50 (MOLT-4 leukemia)	TGI (MOLT-4 leukemia)	GI50 (HL-60(TB) leukemia)	TGI (HL-60(TB) leukemia)	GI50 (CCRF-CEM leukemia)	TGI (CCRF-CEM leukemia)	GI50 (ACHN renal)	TGI (ACHN renal)
Cc1cc2c(cc1Cl)S/C(=C/C(=O)O)C(Nc1cccc3nsnc13)=NS2(=O)=O	32.1 µM	> 68 µM	33.4 µM	> 58.5 µM	47.5 µM	> 69.8 µM	28.2 µM	62 µM	> 56.9 µM	> 71.5 µM	27 µM	> 53.4 µM	17.9 µM	> 59.4 µM	7.63 µM	> 32.5 µM	22.5 µM	> 81.9 µM	> 52.3 µM	> 64.9 µM
Cn1c(=O)nc2n(-c3ccc(Cl)c(C(F)(F)F)c3)c3ccccc3nc-2c1=O		> 100 µM		26.9 µM		> 100 µM		> 100 µM		> 100 µM		> 100 µM		> 100 µM		46.2 µM		> 100 µM		> 100 µM
COc1ccc(C2=C(N3CCc4ccccc43)C(=O)NC2=O)cc1	> 25 µM	> 25 µM	> 21.6 µM	> 25 µM	> 25 µM	> 25 µM	0.642 µM	19.7 µM	> 25 µM	> 25 µM	> 25 µM	> 25 µM	25 µM	> 25 µM	> 21.1 µM	> 25 µM	2.73 µM	> 11.7 µM	> 25 µM	> 25 µM
COc1cccc(COc2cc(-n3cnc4ccccc43)sc2C(N)=O)c1	> 20.5 µM	> 25 µM	> 19.4 µM	> 25 µM	5.09 µM	> 25 µM	> 5.9 µM	> 25 µM	> 15.6 µM	> 25 µM	> 20.5 µM	> 25 µM	> 14.8 µM	> 25 µM	6.03 µM	> 25 µM	1.15 µM	> 25 µM	> 25 µM	> 25 µM
CCOc1ccc(Nc2c3ccccc3nc3ccccc23)cc1	1.33 µM and 1.29 µM	3.83 µM and 4.06 µM	0.343 µM and 0.371 µM	1.33 µM and 1.45 µM	0.313 µM and 0.264 µM	1.17 µM and 1.03 µM	0.299 µM and 1.06 µM	3.16 µM and 9.42 µM	0.228 µM and 0.219 µM	1.11 µM and 0.956 µM	1.08 µM and 1 µM	14.5 µM and 9.76 µM	0.476 µM and 0.258 µM	5.59 µM and 1.27 µM	1.58 µM and 0.545 µM	5.15 µM and 2.54 µM	0.585 µM and 0.739 µM	> 31.7 µM and 3.26 µM	0.953 µM and 0.636 µM	3.83 µM and 2.15 µM
COc1ccccc1NC(=O)/C(=C/c1ccccc1)C(C)=O		> 100 µM		62 µM		> 100 µM		> 100 µM		71 µM		> 100 µM		> 100 µM		57.3 µM		> 100 µM		> 100 µM
Cc1cccc(N(CC(=O)O)S(=O)(=O)c2ccccc2)c1		> 100 µM		> 100 µM		> 100 µM		> 100 µM		> 100 µM		> 100 µM		> 100 µM		> 100 µM		> 100 µM		> 100 µM
CCOC(=O)c1c(SCCN2CCOCC2)n(-c2ccccc2)c(=S)n(-c2ccccc2)c1=O		> 100 µM		90.1 µM		> 100 µM		> 100 µM		61.2 µM		> 100 µM		92.5 µM		49.2 µM		99 µM		> 100 µM
COc1ccc(C(=O)c2nc3ccccc3n2CC(=O)c2ccc(Cl)cc2)cc1	> 28.4 µM	> 100 µM	2.55 µM	12.9 µM	2.55 µM	> 20.4 µM	> 100 µM	> 100 µM	2.5 µM	> 100 µM	9.72 µM	> 100 µM	2.09 µM	> 100 µM	0.958 µM	5.06 µM	2.24 µM	> 26.4 µM	6.4 µM	> 100 µM
CCOC(=O)N1CCN(CCCCCOc2ccccc2C2CCCCC2)CC1	3.96 µM	18.4 µM	1.52 µM	3.53 µM	8.29 µM	24.1 µM	4.07 µM	17.5 µM	2.65 µM	13.9 µM	6.34 µM	22.2 µM	2.92 µM	13 µM	1.39 µM	3.5 µM	4.42 µM	18.4 µM	10.6 µM	23.8 µM
CC(C)Oc1ccc(C(=O)Cn2ccnc2)cc1-n1c(CN2CCN(C(=O)COc3ccc(Cl)cc3)CC2)nc2ccccc2c1=O	14.5 µM	38.9 µM	9.78 µM	23.5 µM	2.18 µM	13.2 µM	13.1 µM	35 µM	14.8 µM	31.6 µM	14.6 µM	33.6 µM	7.55 µM	> 71.8 µM	2.3 µM	27.7 µM	11 µM	> 100 µM	1.61 µM	3.14 µM
COc1cc2nc(-c3ccc(C(F)(F)F)cc3)cc(OCCCN3CCCC3)c2cc1OC	0.737 µM	10.6 µM	0.51 µM	1.28 µM	4.07 µM	> 42.2 µM	0.351 µM	5.68 µM	0.393 µM	1.64 µM	0.558 µM	> 42.7 µM	1.42 µM	5.09 µM	1 µM	5.86 µM	1.08 µM	9.92 µM	0.754 µM	> 34.1 µM
O=C1[C@H]2ON(c3ccccc3)C(c3ccco3)[C@H]2C(=O)N1c1ccc(Cc2ccc(N3C(=O)[C@@H]4ON(c5ccccc5)C(c5ccco5)[C@@H]4C3=O)cc2)cc1 (stereo not given in full)		> 100 µM		> 100 µM		> 100 µM		> 100 µM		> 100 µM		> 100 µM		> 100 µM		> 100 µM		> 100 µM		> 100 µM
N#Cc1c(-c2ccco2)cc(-c2ccccc2)[nH]c1=O		> 100 µM		> 100 µM		> 100 µM		> 100 µM		> 100 µM		> 100 µM		> 100 µM		> 100 µM		> 100 µM		> 100 µM
Cc1ccc(NC(=O)/C(Cc2nc3ccc([N+](=O)[O-])cc3[nH]c2=O)=N\NC(=O)C[n+]2ccccc2)c(C)c1		> 100 µM		55.4 µM		59.3 µM		> 100 µM		> 100 µM		98.1 µM		88 µM		81.8 µM		61.1 µM		47.6 µM
CCN(CC)c1ccc(/C=C/C2=[N+](C)c3ccccc3C2(C)C)c(C)c1	0.0444 µM	1.69 µM	0.0335 µM	0.0854 µM	0.0616 µM	1.47 µM	0.0217 µM	0.148 µM	0.0358 µM	1.49 µM	0.0738 µM	1.24 µM	0.0512 µM	1.55 µM	0.0367 µM	0.138 µM	0.0271 µM	4.68 µM	0.0773 µM	3.97 µM
Cc1ccc(-n2nc(C(C)(C)C)cc2NC(=O)NCc2cc(F)ccc2Oc2ccc3c(cnn3CCO)c2)cc1	0.562 µM and 2.75 µM	> 100 µM	2.39 µM and 3.15 µM	> 10 µM and 13.2 µM	> 10 µM and 7.65 µM	> 76.5 µM	8.06 µM and 5.1 µM	> 10 µM and 95.2 µM	> 10 µM and 10.2 µM	> 100 µM	> 10 µM and 6.27 µM	> 100 µM	9.91 µM and 2.05 µM	> 10 µM and 5.23 µM	1.41 µM and 2.09 µM	> 10 µM and 10.1 µM	> 10 µM and 3.38 µM	> 69.7 µM	4.3 µM and 2.79 µM	> 56.2 µM
CCCCCCCCCCCCCCCCCCOCC(COCCOCC[N+]1(CCCCCC(=O)[O-])CCCC1)Oc1ncccn1 (stereo not given)		26.7 µM		15.2 µM		20.4 µM		5.93 µM		27.2 µM		16.7 µM		20.7 µM		2.6 µM		13.9 µM		23.7 µM
CCn1c(-c2nonc2N)nc2ccncc21	> 25 µM	> 25 µM	> 25 µM	> 25 µM	> 25 µM	> 25 µM	> 25 µM	> 25 µM	> 25 µM	> 25 µM	> 25 µM	> 25 µM	> 25 µM	> 25 µM	> 25 µM	> 25 µM	> 25 µM	> 25 µM	> 25 µM	> 25 µM
COc1ccc2[nH]c(-c3ccc(O)cc3)cc(=O)c2c1		4.81 µM		5.43 µM		13.1 µM		43.9 µM		6.71 µM		54.2 µM		79.4 µM		2.16 µM		21.9 µM		> 100 µM
Cc1ccc(NC(=O)/C(Cc2cc(=O)oc3cc(O)ccc23)=N\NC(=O)C[N+](C)(C)C)cc1C		> 100 µM		> 100 µM		> 100 µM		> 100 µM		> 100 µM		> 100 µM		> 100 µM		> 100 µM		> 100 µM		> 100 µM
O=C(/C=C/c1cccc(O)c1)c1cccc(-n2cc(-c3ccc4ccccc4c3)[nH]c2=O)c1	2.43 µM	8.91 µM	1.16 µM	2.41 µM	1.33 µM	2.78 µM	0.518 µM	8.69 µM	1.44 µM	3.63 µM	1.44 µM	3.56 µM	1.27 µM	5.24 µM	1.01 µM	3.21 µM	2.03 µM	> 100 µM	1.57 µM	3.08 µM
COC(=O)c1ccc2c(c1)C(=O)c1c-2n(CCCN=[N+]=[N-])c(=O)c2cc([N+](=O)[O-])ccc12	> 100 µM	> 100 µM	> 100 µM	> 100 µM	> 100 µM	> 100 µM	17.5 µM	53.3 µM	59.8 µM	> 100 µM	> 100 µM	> 100 µM	30.2 µM	> 100 µM	> 100 µM	> 100 µM	42.2 µM	> 100 µM	13 µM	28.7 µM
COc1ccc(-c2c(C3=NCCCN3)nnn2-c2ccc([N+](=O)[O-])cc2)cc1		> 100 µM		> 100 µM		> 100 µM		> 100 µM		> 100 µM		> 100 µM		> 100 µM		> 100 µM		> 100 µM		> 100 µM
Cc1cccc(C)c1N1C(=O)C(=O)C(c2nc3ccccc3s2)C(=Nc2cccc3c(=O)[nH][nH]c(=O)c23)C1=O (stereo not given)		> 100 µM		> 100 µM		> 100 µM		> 100 µM		> 100 µM		> 100 µM		> 100 µM		> 100 µM		> 100 µM		> 100 µM
CC(C)[O-].CC(C)[O-].CN(CCN(C)Cc1cc(F)cc(F)c1[O-])Cc1cc(F)cc(F)c1[O-].[Ti+4]	2.14 µM	10.5 µM	0.467 µM	1.67 µM	0.923 µM	6.78 µM	0.316 µM	1.18 µM	0.71 µM	3.76 µM	1.53 µM	7.31 µM	0.9 µM	8.47 µM	1.51 µM	> 40.8 µM	0.512 µM	> 35.1 µM	1 µM	8.34 µM
C=CCNC(=O)N(CCC)CCCC(NC(C)=O)C(=O)NCc1ccccc1 (stereo not given)		> 100 µM		> 100 µM		> 100 µM		> 100 µM		> 100 µM		> 100 µM		> 100 µM		> 100 µM		> 100 µM		> 100 µM
O=c1[nH]c2cc([N+](=O)[O-])ccc2nc1/C(=N\Nc1ccccc1)C(O)c1ccc2c(c1)OCO2 (stereo not given)		> 100 µM		> 100 µM		> 100 µM		42.7 µM		> 100 µM		> 100 µM		> 100 µM		> 100 µM		> 100 µM		> 100 µM
OCc1ccc(N2CCOCC2)cc1Cl	0.705 µM	2.37 µM	> 91.2 µM	> 100 µM	35.2 µM	> 92 µM	34.6 µM	> 100 µM	28.2 µM	> 100 µM	> 100 µM	> 100 µM	> 100 µM	> 100 µM	> 100 µM	> 100 µM	> 100 µM	> 100 µM	> 100 µM	> 100 µM

— PubChem BioAssay (NCI)
